Assay results from the NIST ThermoML archive (doi:10.1021/acs.jced.8b00153).
Where “and” joins values, the source holds several entries; their conditions need not be identical. Equal values may be shown once. Numbers after ± are expanded uncertainties.

Settings: for mass density / vapor or sublimation pressure / viscosity / speed of sound: Liquid; for mass density: Vibrating tube method; for vapor or sublimation pressure: Ebulliometric method (Recirculating still); for surface tension liquid-gas: Drop volume; for viscosity: Capillary tube (Ostwald / Ubbelohde) method; for speed of sound: Frequency=3 MHz, Single path-length method

**Q.** With `CCc1ccco1` [2-ethylfuran] as the molecule, how does the mass density (328.15 K, 10000 kPa) read?
**A.** 876.84 ± 0.25 kg/m3

**Q.** What about the mass density (328.15 K, 15000 kPa) of the same molecule?
**A.** 882.03 ± 0.26 kg/m3

**Q.** And the mass density (328.15 K, 20000 kPa)?
**A.** 886.97 ± 0.27 kg/m3

**Q.** What about the mass density (328.15 K, 25000 kPa) of the same molecule?
**A.** 891.57 ± 0.28 kg/m3

**Q.** What about the mass density (328.15 K, 30000 kPa) of the same molecule?
**A.** 895.96 ± 0.29 kg/m3

**Q.** What about the mass density (328.15 K, 35000 kPa) of the same molecule?
**A.** 900.23 ± 0.3 kg/m3

**Q.** And the mass density (328.15 K, 40000 kPa)?
**A.** 904.35 ± 0.31 kg/m3

**Q.** And the mass density (328.15 K, 45000 kPa)?
**A.** 908.24 ± 0.32 kg/m3

**Q.** What about the mass density (328.15 K, 50000 kPa) of the same molecule?
**A.** 912.04 ± 0.32 kg/m3

**Q.** And the mass density (328.15 K, 55000 kPa)?
**A.** 915.63 ± 0.33 kg/m3

**Q.** And the mass density (328.15 K, 60000 kPa)?
**A.** 919.32 ± 0.33 kg/m3

**Q.** And the mass density (328.15 K, 65000 kPa)?
**A.** 922.64 ± 0.34 kg/m3

**Q.** What about the “vapor or sublimation pressure” value (329.8 K) of the same molecule?
**A.** 30.6 ± 0.1 kPa

**Q.** What about the surface tension liquid-gas (330.65 K) of the same molecule?
**A.** 20.87 ± 0.24 mN/m

**Q.** And the viscosity (330.65 K, 100 kPa)?
**A.** 0.3536 ± 0.0056 mPa·s

**Q.** And the speed of sound (330.65 K, 100 kPa)?
**A.** 1053.7 ± 0.71 m/s

**Q.** What about the mass density (330.65 K, 100 kPa) of the same molecule?
**A.** 862.76 ± 0.51 kg/m3

**Q.** And the “vapor or sublimation pressure” value (331.39 K)?
**A.** 32.49 ± 0.1 kPa

**Q.** And the surface tension liquid-gas (333.15 K)?
**A.** 20.5 ± 0.24 mN/m

**Q.** And the viscosity (333.15 K, 100 kPa)?
**A.** 0.3455 ± 0.0056 mPa·s

**Q.** And the speed of sound (333.15 K, 100 kPa)?
**A.** 1042.2 ± 0.71 m/s

**Q.** What about the mass density (333.15 K, 100 kPa) of the same molecule?
**A.** 859.9 ± 0.51 kg/m3 and 859.9 ± 0.23 kg/m3

**Q.** And the mass density (333.15 K, 2000 kPa)?
**A.** 862.3 ± 0.23 kg/m3

**Q.** What about the mass density (333.15 K, 5000 kPa) of the same molecule?
**A.** 865.81 ± 0.24 kg/m3

**Q.** What about the mass density (333.15 K, 7000 kPa) of the same molecule?
**A.** 868.2 ± 0.25 kg/m3

**Q.** What about the mass density (333.15 K, 10000 kPa) of the same molecule?
**A.** 871.58 ± 0.25 kg/m3

**Q.** And the mass density (333.15 K, 15000 kPa)?
**A.** 876.87 ± 0.26 kg/m3

**Q.** And the mass density (333.15 K, 20000 kPa)?
**A.** 881.93 ± 0.28 kg/m3

**Q.** And the mass density (333.15 K, 25000 kPa)?
**A.** 886.74 ± 0.29 kg/m3

**Q.** What about the mass density (333.15 K, 30000 kPa) of the same molecule?
**A.** 891.26 ± 0.3 kg/m3

**Q.** And the mass density (333.15 K, 35000 kPa)?
**A.** 895.59 ± 0.31 kg/m3

**Q.** What about the mass density (333.15 K, 40000 kPa) of the same molecule?
**A.** 899.79 ± 0.31 kg/m3

**Q.** What about the mass density (333.15 K, 45000 kPa) of the same molecule?
**A.** 903.78 ± 0.32 kg/m3

**Q.** What about the mass density (333.15 K, 50000 kPa) of the same molecule?
**A.** 907.66 ± 0.33 kg/m3

**Q.** And the mass density (333.15 K, 55000 kPa)?
**A.** 911.34 ± 0.34 kg/m3

**Q.** And the mass density (333.15 K, 60000 kPa)?
**A.** 915.07 ± 0.34 kg/m3

**Q.** What about the mass density (333.15 K, 65000 kPa) of the same molecule?
**A.** 918.6 ± 0.35 kg/m3

**Q.** What about the “vapor or sublimation pressure” value (333.19 K) of the same molecule?
**A.** 34.85 ± 0.1 kPa

**Q.** What about the “vapor or sublimation pressure” value (334.73 K) of the same molecule?
**A.** 36.94 ± 0.11 kPa

**Q.** And the surface tension liquid-gas (335.65 K)?
**A.** 20.28 ± 0.24 mN/m

**Q.** And the viscosity (335.65 K, 100 kPa)?
**A.** 0.3372 ± 0.0056 mPa·s

**Q.** And the speed of sound (335.65 K, 100 kPa)?
**A.** 1032.1 ± 0.71 m/s

**Q.** What about the mass density (335.65 K, 100 kPa) of the same molecule?
**A.** 857.02 ± 0.51 kg/m3

**Q.** What about the “vapor or sublimation pressure” value (336.84 K) of the same molecule?
**A.** 39.92 ± 0.11 kPa

**Q.** And the surface tension liquid-gas (338.15 K)?
**A.** 19.95 ± 0.24 mN/m

**Q.** What about the viscosity (338.15 K, 100 kPa) of the same molecule?
**A.** 0.33 ± 0.0056 mPa·s

**Q.** And the speed of sound (338.15 K, 100 kPa)?
**A.** 1020.5 ± 0.71 m/s

**Q.** What about the mass density (338.15 K, 100 kPa) of the same molecule?
**A.** 854.13 ± 0.51 kg/m3 and 854.07 ± 0.23 kg/m3

**Q.** What about the mass density (338.15 K, 2000 kPa) of the same molecule?
**A.** 856.63 ± 0.24 kg/m3

**Q.** What about the mass density (338.15 K, 5000 kPa) of the same molecule?
**A.** 860.21 ± 0.24 kg/m3

**Q.** What about the mass density (338.15 K, 7000 kPa) of the same molecule?
**A.** 862.69 ± 0.25 kg/m3

**Q.** And the mass density (338.15 K, 10000 kPa)?
**A.** 866.19 ± 0.26 kg/m3

**Q.** What about the mass density (338.15 K, 15000 kPa) of the same molecule?
**A.** 871.73 ± 0.27 kg/m3

**Q.** And the mass density (338.15 K, 20000 kPa)?
**A.** 876.98 ± 0.28 kg/m3

**Q.** And the mass density (338.15 K, 25000 kPa)?
**A.** 881.86 ± 0.29 kg/m3

**Q.** And the mass density (338.15 K, 30000 kPa)?
**A.** 886.43 ± 0.3 kg/m3

**Q.** And the mass density (338.15 K, 35000 kPa)?
**A.** 890.92 ± 0.31 kg/m3

**Q.** And the mass density (338.15 K, 40000 kPa)?
**A.** 895.2 ± 0.32 kg/m3

**Q.** And the mass density (338.15 K, 45000 kPa)?
**A.** 899.36 ± 0.33 kg/m3

**Q.** And the mass density (338.15 K, 50000 kPa)?
**A.** 903.34 ± 0.34 kg/m3

**Q.** And the mass density (338.15 K, 55000 kPa)?
**A.** 907.07 ± 0.34 kg/m3

**Q.** And the mass density (338.15 K, 60000 kPa)?
**A.** 910.92 ± 0.35 kg/m3

**Q.** What about the mass density (338.15 K, 65000 kPa) of the same molecule?
**A.** 914.41 ± 0.35 kg/m3

**Q.** What about the “vapor or sublimation pressure” value (338.83 K) of the same molecule?
**A.** 42.91 ± 0.11 kPa

**Q.** And the “vapor or sublimation pressure” value (340.3 K)?
**A.** 45.25 ± 0.11 kPa

**Q.** And the “vapor or sublimation pressure” value (342.6 K)?
**A.** 49.13 ± 0.11 kPa

**Q.** What about the “vapor or sublimation pressure” value (344.85 K) of the same molecule?
**A.** 53.18 ± 0.11 kPa

**Q.** And the “vapor or sublimation pressure” value (347.05 K)?
**A.** 57.4 ± 0.11 kPa

**Q.** And the “vapor or sublimation pressure” value (348.94 K)?
**A.** 61.22 ± 0.11 kPa

**Q.** And the “vapor or sublimation pressure” value (350.71 K)?
**A.** 64.98 ± 0.12 kPa

**Q.** What about the “vapor or sublimation pressure” value (352.9 K) of the same molecule?
**A.** 69.89 ± 0.12 kPa

**Q.** What about the “vapor or sublimation pressure” value (354.83 K) of the same molecule?
**A.** 74.51 ± 0.12 kPa

**Q.** And the “vapor or sublimation pressure” value (356.8 K)?
**A.** 79.34 ± 0.12 kPa

**Q.** What about the “vapor or sublimation pressure” value (358.65 K) of the same molecule?
**A.** 84.17 ± 0.12 kPa

**Q.** And the “vapor or sublimation pressure” value (360.61 K)?
**A.** 89.59 ± 0.12 kPa

**Q.** And the “vapor or sublimation pressure” value (361.79 K)?
**A.** 92.94 ± 0.12 kPa

**Q.** What about the “vapor or sublimation pressure” value (362.46 K) of the same molecule?
**A.** 94.88 ± 0.13 kPa

**Q.** What about the “vapor or sublimation pressure” value (363.67 K) of the same molecule?
**A.** 98.45 ± 0.13 kPa

**Q.** And the “vapor or sublimation pressure” value (364.18 K)?
**A.** 100.08 ± 0.13 kPa

**Q.** And the “vapor or sublimation pressure” value (364.61 K)?
**A.** 101.33 ± 0.13 kPa
